According to PMC7217030 (Journal of medicinal chemistry, 2018):

Legend:
[1] = target: T1, thyroid hormone receptor (TRβ) LBD fused to GAL4 DBD (Homo sapiens, UniProt P10828); experiment: GeneBLAzer nuclear hormone receptor specificity assay, agonist mode, TRβ; type: cell-based; settings: 0.25 to 25 μM
T1 sequence (P10828 217-461 limits assumed): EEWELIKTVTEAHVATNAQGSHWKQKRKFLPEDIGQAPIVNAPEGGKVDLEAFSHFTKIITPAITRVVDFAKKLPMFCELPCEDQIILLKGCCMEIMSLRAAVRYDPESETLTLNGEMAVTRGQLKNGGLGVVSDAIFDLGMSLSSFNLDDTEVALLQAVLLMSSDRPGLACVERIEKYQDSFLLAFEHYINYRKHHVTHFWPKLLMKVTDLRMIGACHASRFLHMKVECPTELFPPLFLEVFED

[2] = target: T2, mineralocorticoid receptor (MR) LBD fused to GAL4 DBD (Homo sapiens, UniProt P08235); experiment: GeneBLAzer nuclear hormone receptor specificity assay, agonist mode, MR; type: cell-based; settings: 0.25 to 25 μM
T2 sequence (P08235 726-964 limits assumed): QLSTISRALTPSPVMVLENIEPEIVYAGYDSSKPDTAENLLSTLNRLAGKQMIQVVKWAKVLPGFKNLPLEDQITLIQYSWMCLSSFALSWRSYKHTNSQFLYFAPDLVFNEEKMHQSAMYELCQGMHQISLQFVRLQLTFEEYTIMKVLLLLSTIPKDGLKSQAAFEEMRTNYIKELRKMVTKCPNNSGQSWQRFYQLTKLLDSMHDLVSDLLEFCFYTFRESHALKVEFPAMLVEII

CYP1A2 = target: T3, CYP1A2 (Homo sapiens, UniProt P05177); experiment: P450-Glo cytochrome P450 inhibition, CYP1A2; type: in vitro ADME; settings: highest concentration 62.5 μM
T3 sequence (P05177 1-516): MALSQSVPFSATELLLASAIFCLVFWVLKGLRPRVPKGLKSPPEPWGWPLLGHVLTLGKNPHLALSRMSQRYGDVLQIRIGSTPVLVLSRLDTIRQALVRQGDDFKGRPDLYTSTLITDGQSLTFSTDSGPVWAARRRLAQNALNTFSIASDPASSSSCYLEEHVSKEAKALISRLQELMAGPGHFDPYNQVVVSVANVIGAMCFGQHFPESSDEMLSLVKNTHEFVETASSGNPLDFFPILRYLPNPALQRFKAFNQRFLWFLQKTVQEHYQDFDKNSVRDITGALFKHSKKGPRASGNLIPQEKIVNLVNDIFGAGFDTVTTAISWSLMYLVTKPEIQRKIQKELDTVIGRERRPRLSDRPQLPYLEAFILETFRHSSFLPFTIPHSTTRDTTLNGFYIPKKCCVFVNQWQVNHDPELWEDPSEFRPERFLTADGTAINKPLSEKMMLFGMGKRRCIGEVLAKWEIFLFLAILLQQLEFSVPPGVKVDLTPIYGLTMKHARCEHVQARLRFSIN

ovariectomized mice [3] = experiment: Object placement task; settings: for time with moved object vs chance, object placement: tested 24 h after training; for preference for moved object vs chance, object placement: within 1 month of ovariectomy
[4] = target: T4, vitamin D receptor (VDR) LBD fused to GAL4 DBD (Homo sapiens, UniProt P11473); experiment: GeneBLAzer nuclear hormone receptor specificity assay, agonist mode, VDR; type: cell-based; settings: 0.25 to 25 μM
T4 sequence (P11473 127-423 limits assumed): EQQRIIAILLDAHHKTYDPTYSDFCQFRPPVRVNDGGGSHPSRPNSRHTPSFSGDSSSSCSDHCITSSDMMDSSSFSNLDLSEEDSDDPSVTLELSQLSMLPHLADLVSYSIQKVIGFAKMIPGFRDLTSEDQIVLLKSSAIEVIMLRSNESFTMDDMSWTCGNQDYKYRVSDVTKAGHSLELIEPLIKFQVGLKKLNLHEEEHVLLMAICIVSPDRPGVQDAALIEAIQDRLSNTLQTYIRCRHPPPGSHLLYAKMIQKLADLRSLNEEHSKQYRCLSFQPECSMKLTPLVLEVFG

[5] = target: T5, androgen receptor (AR) LBD fused to GAL4 DBD (Homo sapiens, UniProt P10275); experiment: GeneBLAzer nuclear hormone receptor specificity assay, agonist mode, AR; type: cell-based; settings: 0.25 to 25 μM
T5 sequence (P10275 669-900 limits assumed): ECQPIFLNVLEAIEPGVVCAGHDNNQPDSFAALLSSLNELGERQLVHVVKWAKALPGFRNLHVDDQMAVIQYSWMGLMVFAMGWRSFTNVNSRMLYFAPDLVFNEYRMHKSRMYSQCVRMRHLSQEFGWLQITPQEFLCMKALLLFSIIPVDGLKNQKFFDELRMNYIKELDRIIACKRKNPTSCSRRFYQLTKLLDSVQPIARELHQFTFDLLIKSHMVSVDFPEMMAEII

[6] = target: T6, progesterone receptor (PR) LBD fused to GAL4 DBD (Homo sapiens, UniProt P06401); experiment: GeneBLAzer nuclear hormone receptor specificity assay, agonist mode, PR; type: cell-based; settings: 0.25 to 25 μM
T6 sequence (P06401 679-913 limits assumed): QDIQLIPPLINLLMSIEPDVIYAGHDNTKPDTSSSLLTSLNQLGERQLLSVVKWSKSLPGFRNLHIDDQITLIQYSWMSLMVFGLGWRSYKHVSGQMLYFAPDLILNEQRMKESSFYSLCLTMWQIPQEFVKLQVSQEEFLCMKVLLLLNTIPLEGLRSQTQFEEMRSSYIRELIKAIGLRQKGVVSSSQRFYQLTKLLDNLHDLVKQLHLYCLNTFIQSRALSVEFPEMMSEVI

CYP2D6 = CYP2D6 (Homo sapiens, UniProt P10635); experiment: P450-Glo cytochrome P450 inhibition, CYP2D6; type: in vitro ADME; settings: highest concentration 62.5 μM
Chain of CYP2D6 (P10635 whole entry): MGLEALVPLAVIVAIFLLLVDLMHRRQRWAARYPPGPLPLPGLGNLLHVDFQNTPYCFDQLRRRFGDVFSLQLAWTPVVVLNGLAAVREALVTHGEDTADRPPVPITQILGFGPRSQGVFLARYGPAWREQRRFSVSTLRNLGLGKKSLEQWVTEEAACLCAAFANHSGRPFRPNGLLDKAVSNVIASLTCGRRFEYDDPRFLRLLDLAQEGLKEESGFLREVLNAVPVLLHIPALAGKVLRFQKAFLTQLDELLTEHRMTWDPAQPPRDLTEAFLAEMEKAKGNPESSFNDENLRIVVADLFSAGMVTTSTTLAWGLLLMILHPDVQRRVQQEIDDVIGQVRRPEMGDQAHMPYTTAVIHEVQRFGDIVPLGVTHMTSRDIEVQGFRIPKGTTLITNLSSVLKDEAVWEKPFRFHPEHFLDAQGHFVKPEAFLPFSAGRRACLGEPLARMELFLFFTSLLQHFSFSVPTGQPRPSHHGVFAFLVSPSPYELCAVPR

[7] = target: T7, full length and native ERα (Homo sapiens, UniProt P03372); experiment: Cell-based transcriptional assay, ERα antagonist mode; settings: concentrations up to 10 μM
T7 sequence (P03372 1-595): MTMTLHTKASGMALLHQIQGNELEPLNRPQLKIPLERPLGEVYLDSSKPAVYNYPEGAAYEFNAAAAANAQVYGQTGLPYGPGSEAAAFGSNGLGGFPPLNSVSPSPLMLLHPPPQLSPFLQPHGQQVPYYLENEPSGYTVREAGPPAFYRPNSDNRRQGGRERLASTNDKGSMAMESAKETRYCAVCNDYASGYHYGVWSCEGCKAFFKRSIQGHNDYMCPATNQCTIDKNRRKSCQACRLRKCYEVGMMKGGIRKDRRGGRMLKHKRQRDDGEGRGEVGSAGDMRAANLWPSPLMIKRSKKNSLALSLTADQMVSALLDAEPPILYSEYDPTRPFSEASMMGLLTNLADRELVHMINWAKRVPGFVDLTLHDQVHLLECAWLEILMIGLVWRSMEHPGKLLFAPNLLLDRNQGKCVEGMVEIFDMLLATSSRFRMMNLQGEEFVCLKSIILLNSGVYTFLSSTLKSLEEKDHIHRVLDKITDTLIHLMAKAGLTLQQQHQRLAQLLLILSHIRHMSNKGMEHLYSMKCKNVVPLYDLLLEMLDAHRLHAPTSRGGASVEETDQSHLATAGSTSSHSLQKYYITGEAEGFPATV

ERα LBD = target: T8, ERα LBD (Homo sapiens, UniProt P03372); experiment: LanthaScreen TR-FRET coactivator; type: biochemical
T8 sequence (P03372 311-547 limits assumed): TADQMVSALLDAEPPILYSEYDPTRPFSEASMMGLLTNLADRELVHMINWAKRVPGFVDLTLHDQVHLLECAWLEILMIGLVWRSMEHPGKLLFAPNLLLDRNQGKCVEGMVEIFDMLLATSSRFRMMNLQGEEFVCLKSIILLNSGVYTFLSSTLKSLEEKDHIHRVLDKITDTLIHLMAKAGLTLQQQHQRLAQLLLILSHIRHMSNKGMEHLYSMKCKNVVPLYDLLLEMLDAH

[8] = target: T9, peroxisome proliferator-activated receptor (PPARδ) LBD fused to GAL4 DBD (Homo sapiens, UniProt Q03181); experiment: GeneBLAzer nuclear hormone receptor specificity assay, agonist mode, PPARδ; type: cell-based; settings: 0.25 to 25 μM
T9 sequence (Q03181 211-439 limits assumed): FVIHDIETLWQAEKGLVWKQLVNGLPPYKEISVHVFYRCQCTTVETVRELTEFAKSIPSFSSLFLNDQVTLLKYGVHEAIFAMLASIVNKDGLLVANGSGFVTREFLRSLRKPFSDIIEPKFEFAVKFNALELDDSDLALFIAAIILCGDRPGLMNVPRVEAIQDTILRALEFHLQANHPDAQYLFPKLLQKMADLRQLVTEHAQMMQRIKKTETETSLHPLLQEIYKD

[9] = target: T10, glucocorticoid receptor (GR) LBD fused to GAL4 DBD (Homo sapiens, UniProt P04150); experiment: GeneBLAzer nuclear hormone receptor specificity assay, agonist mode, GR; type: cell-based; settings: 0.25 to 25 μM
T10 sequence (P04150 524-758 limits assumed): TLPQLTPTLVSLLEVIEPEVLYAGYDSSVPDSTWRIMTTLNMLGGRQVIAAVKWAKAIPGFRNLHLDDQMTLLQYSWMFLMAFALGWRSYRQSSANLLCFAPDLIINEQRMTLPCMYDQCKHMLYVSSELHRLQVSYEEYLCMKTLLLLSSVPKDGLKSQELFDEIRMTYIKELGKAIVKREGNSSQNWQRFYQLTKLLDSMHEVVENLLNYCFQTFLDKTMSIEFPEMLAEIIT

ovariectomized mice [10] = experiment: Object recognition task; settings: for preference for novel object vs chance, object recognition: IP injection

OC[C@H]1CC[C@H](c2ccc(O)cc2)CC1 [ISP358–2]
agonist activity at TRβ [1]: not an agonist | agonist activity at MR [2]: not an agonist | inhibition of CYP1A2 (CYP1A2): no inhibition | time with moved object vs chance, object placement (ovariectomized mice [3]; IP injection, 0.5 mg/kg): spent significantly more time than chance with the moved object | time with moved object vs chance, object placement (ovariectomized mice [3]; IP injection, 5 mg/kg): spent significantly more time than chance with the moved object | time with moved object vs chance, object placement (ovariectomized mice [3]; dorsal hippocampal infusion, 10 pg/hemisphere): did not spend significantly more time than chance with the moved object | time with moved object vs chance, object placement (ovariectomized mice [3]; dorsal hippocampal infusion, 100 pg/hemisphere): spent significantly more time than chance with the moved object | time with moved object vs chance, object placement (ovariectomized mice [3]; dorsal hippocampal infusion, 1 ng/hemisphere): spent significantly more time than chance with the moved object | preference for moved object vs chance, object placement (ovariectomized mice [3]; oral gavage, 0.5 mg/kg): exhibited a significant preference for the moved object relative to chance | preference for moved object vs chance, object placement (ovariectomized mice [3]; oral gavage, 5 mg/kg): exhibited a significant preference for the moved object relative to chance | spatial memory consolidation after long-term estrogen deprivation, object placement (ovariectomized mice [3]; oral gavage, same doses, 4 months after ovariectomy, preliminary): did not enhance spatial memory consolidation | agonist activity at VDR [4]: not an agonist | agonist activity at AR [5]: not an agonist | agonist activity at PR [6]: not an agonist | inhibition of CYP2D6 (CYP2D6): no inhibition | ERα antagonist activity [7]: No measurable antagonist activity | EC50 (ERα LBD): 2940 nM | agonist activity at PPARδ [8]: not an agonist | agonist activity at GR [9]: not an agonist | preference for novel object vs chance, object recognition (ovariectomized mice [10]; 0.5 mg/kg, tested 48 h after training): exhibited a significant preference for the novel object relative to chance | preference for novel object vs chance, object recognition (ovariectomized mice [10]; 5 mg/kg, tested 48 h after training): somewhat of a trend for the 5 mg/kg ISP358–2 to prefer the novel object | time with novel object vs chance, object recognition (ovariectomized mice [10]; dorsal hippocampal infusion, 10 pg/hemisphere, tested 48 h after training): Neither the vehicle nor 10 pg of ISP358–2 groups showed a preference for the novel object | time with novel object vs chance, object recognition (ovariectomized mice [10]; dorsal hippocampal infusion, 100 pg/hemisphere, tested 48 h after training): spent significantly more time than chance with the novel object | time with novel object vs chance, object recognition (ovariectomized mice [10]; dorsal hippocampal infusion, 1 ng/hemisphere, tested 48 h after training): spent significantly more time than chance with the novel object | time with novel object vs chance, object recognition (ovariectomized mice [10]; oral gavage, 0.5 mg/kg): spent significantly more time with the novel object relative to chance | time with novel object vs chance, object recognition (ovariectomized mice [10]; oral gavage, 5 mg/kg): spent significantly more time with the novel object relative to chance
